Among the data in ChEMBL document CHEMBL1140025, “Antimicrobial activity of rationally designed amino terminal modified peptides” (Bioorg Med Chem Lett, 2007) are MIC and hemolysis values, retold here.

One may read the MIC as the lowest concentration found to suppress growth. A low value points to greater potency.

One series has as its system Staphylococcus aureus. Description: Antibacterial activity against Staphylococcus aureus MTCCB 96. The series is classed as functional.
For a further series, the system named is Pseudomonas aeruginosa. Description: Antibacterial activity against Pseudomonas aeruginosa MTCCB 741. Format: functional.
Series [1] relates to Escherichia coli. Briefly: Antibacterial activity against Escherichia coli.
For a further series, the system named is Bacillus subtilis. Briefly: Antibacterial activity against Bacillus subtilis NCIM 2063. The series is classed as functional.
Series [2] concerns Escherichia coli. Briefly: Antibacterial activity against Escherichia coli MTCCB 1610. Format: functional.
Series [3] can be described thus: Toxicity against human red blood cells assessed as lysis upto 1000 ug/mL. Format: cell-based, Erythrocyte. The note with it: read-out: Activity.

Values after ≈ are worked out from the molar mass of the structure shown. Where a SMILES comes first, the peptide text is derived from it. [ ]: non-standard residue; d: D form. The star is where a group is joined. Desaminotyrosyl = O=C(CCc1ccc(O)cc1)*; X1 = O=C(/C=C/c1ccc(O)cc1)*; Orn = NCCC[C@H](N)C(=O)O; X2 = O=C(/C=C/c1ccccc1)*

Consider `CC(=O)N[C@@H](CCCN)C(=O)N[C@@H](CCCN)C(=O)N[C@@H](Cc1c[nH]c2ccccc12)C(=O)N[C@@H](Cc1c[nH]c2ccccc12)C(N)=O` (Ac-[Orn][Orn]WW-NH2), for which the MIC was 2 µg/mL (≈ 3.03 µM) in the series on Staphylococcus aureus; 128 µg/mL (≈ 194 µM) against Pseudomonas aeruginosa; 128 µg/mL (≈ 194 µM) in the series with Escherichia coli [1]; 2 µg/mL (≈ 3.03 µM) with Bacillus subtilis; 32 µg/mL (≈ 48.5 µM) against Escherichia coli [2]. In addition, the hemolysis in series [3] turned out to be 0%.

For the compound `NCCC[C@H](NC(=O)/C=C/c1ccccc1)C(=O)N[C@@H](CCCN)C(=O)N[C@@H](Cc1c[nH]c2ccccc12)C(=O)N[C@@H](Cc1c[nH]c2ccccc12)C(N)=O` (X2-[Orn][Orn]WW-NH2), the MIC is 2 µg/mL (≈ 2.67 µM) against Staphylococcus aureus; 16 µg/mL (≈ 21.4 µM) against Pseudomonas aeruginosa; 4 µg/mL (≈ 5.35 µM) against Escherichia coli [1]; 32 µg/mL (≈ 42.8 µM) against Bacillus subtilis; 2 µg/mL (≈ 2.67 µM) with Escherichia coli [2]. The hemolysis in series [3] is 0%.

Regarding `NC(=O)[C@H](Cc1c[nH]c2ccccc12)NC(=O)[C@H](Cc1c[nH]c2ccccc12)NC(=O)/C=C/c1ccc(O)cc1`, the MIC was 2 µg/mL (≈ 3.73 µM) against Staphylococcus aureus; under 512 µg/mL against Pseudomonas aeruginosa; under 512 µg/mL in the series on Escherichia coli [1]; 1 µg/mL (≈ 1.87 µM) in the series on Bacillus subtilis; under 512 µg/mL in the series on Escherichia coli [2]. Besides, the hemolysis in series [3] was 0%.

As for `NCCC[C@H](NC(=O)/C=C/c1ccc(O)cc1)C(=O)N[C@@H](CCCN)C(=O)N[C@@H](Cc1c[nH]c2ccccc12)C(=O)N[C@@H](Cc1c[nH]c2ccccc12)C(N)=O` (X1-[Orn][Orn]WW-NH2), the MIC against Staphylococcus aureus was found to be 2 µg/mL (≈ 2.62 µM); against Pseudomonas aeruginosa, 2 µg/mL (≈ 2.62 µM); in the series on Escherichia coli [1], 8 µg/mL (≈ 10.5 µM); against Bacillus subtilis, 1 µg/mL (≈ 1.31 µM); with Escherichia coli [2], 16 µg/mL (≈ 20.9 µM). The hemolysis in series [3] amounted to 0%.

Take `NCCC[C@H](NC(=O)/C=C/c1ccc(O)cc1)C(=O)N[C@@H](CCCN)C(=O)N[C@@H](Cc1c[nH]c2ccccc12)C(=O)N[C@@H](Cc1c[nH]c2ccccc12)C(=O)O` (X1-[Orn][Orn]WW-OH): the MIC came to 128 µg/mL (≈ 167 µM) against Staphylococcus aureus; 64 µg/mL (≈ 83.7 µM) in the series with Pseudomonas aeruginosa; 128 µg/mL (≈ 167 µM) with Escherichia coli [1]; 128 µg/mL (≈ 167 µM) with Bacillus subtilis; 64 µg/mL (≈ 83.7 µM) with Escherichia coli [2]. Besides, in series [3], the hemolysis worked out at 0%.

On to `CN(C)[C@@H]1C(O)=C(C(N)=O)C(=O)[C@@]2(O)C(O)=C3C(=O)c4c(O)cccc4[C@@](C)(O)[C@H]3C[C@@H]12` [TETRACYCLINE], for which the MIC with Staphylococcus aureus worked out at 0.25 µg/mL (≈ 0.563 µM); in the series on Pseudomonas aeruginosa, 1 µg/mL (≈ 2.25 µM); with Escherichia coli [1] it was 2 µg/mL (≈ 4.5 µM); against Bacillus subtilis, 0.125 µg/mL (≈ 0.281 µM); in the series with Escherichia coli [2], 0.5 µg/mL (≈ 1.13 µM).

For the compound `NCCC[C@H](NC(=O)[C@@H](N)CCCN)C(=O)N[C@@H](Cc1c[nH]c2ccccc12)C(=O)N[C@@H](Cc1c[nH]c2ccccc12)C(N)=O` (H-[Orn][Orn]WW-NH2), the minimum inhibitory concentration (MIC) was 128 µg/mL (≈ 207 µM) in the series with Staphylococcus aureus; 256 µg/mL (≈ 414 µM) against Pseudomonas aeruginosa; 256 µg/mL (≈ 414 µM) against Escherichia coli [1]; 512 µg/mL (≈ 829 µM) in the series on Bacillus subtilis; 512 µg/mL (≈ 829 µM) in the series with Escherichia coli [2]. Further, in series [3], the hemolysis stood at 0%.

Turning to `NCCC[C@H](NC(=O)CCc1ccc(O)cc1)C(=O)N[C@@H](CCCN)C(=O)N[C@@H](Cc1c[nH]c2ccccc12)C(=O)N[C@@H](Cc1c[nH]c2ccccc12)C(N)=O` (Desaminotyrosyl-[Orn][Orn]WW-NH2), the MIC against Staphylococcus aureus amounted to 1 µg/mL (≈ 1.31 µM); in the series with Pseudomonas aeruginosa, 32 µg/mL (≈ 41.8 µM); against Escherichia coli [1], 4 µg/mL (≈ 5.22 µM); in the series on Bacillus subtilis it was 2 µg/mL (≈ 2.61 µM); against Escherichia coli [2], 2 µg/mL (≈ 2.61 µM). The hemolysis in series [3] was found to be 0%.

On to GENTAMICIN, for which the MIC is 0.062 µg/mL in the series with Staphylococcus aureus, 1 µg/mL in the series with Pseudomonas aeruginosa, 0.03 µg/mL against Bacillus subtilis and 0.25 µg/mL against Escherichia coli [2].

For the compound `NCCC[C@H](NC(=O)/C=C/c1ccc(O)cc1)C(=O)N[C@@H](CCCN)C(=O)N[C@@H](Cc1ccccc1)C(=O)N[C@@H](Cc1ccccc1)C(N)=O` (X1-[Orn][Orn]FF-NH2), the MIC in the series on Staphylococcus aureus stood at 32 µg/mL (≈ 46.7 µM); with Pseudomonas aeruginosa, 2 µg/mL (≈ 2.92 µM); in the series with Escherichia coli [1], 8 µg/mL (≈ 11.7 µM); with Bacillus subtilis, 2 µg/mL (≈ 2.92 µM); in the series with Escherichia coli [2], 4 µg/mL (≈ 5.83 µM). Besides, the hemolysis in series [3] was 0%.
